# BindingDB's records for doi:10.1021/acs.jmedchem.9b01562 (Lupin, 2019)
# Assays:
# [1] = Inhibition of NS5A in HCV genotype 1b infected in human HuH7.5/Con1/SG-Neo(I)-hRluc2aUb cells assessed as inhibition of replicon levels incubated for 72 hrs by luciferase reporter gene assay
# [2] = Inhibition of NS5A in HCV genotype 2a infected in human Huh7.5/J6/JFH1/EMCVIRES/hRlucNeo cells assessed as inhibition of replicon levels incubated for 72 hrs by luciferase reporter gene assay
# [3] = Inhibition of NS5A in HCV genotype 1a infected in human HuH7.5/Con1/SG-Neo(I)-hRluc2aUb cells assessed as inhibition of replicon levels incubated for 72 hrs by luciferase reporter gene assay
# [4] = Inhibition of NS5A in HCV genotype 3a infected in human HuH7.5/Con1/SG-Neo(I)-hRluc2aUb cells assessed as inhibition of replicon levels incubated for 72 hrs by luciferase reporter gene assay
# [5] = Inhibition of NS5A in HCV genotype 4a infected in human HuH7.5/Con1/SG-Neo(I)-hRluc2aUb cells assessed as inhibition of replicon levels incubated for 72 hrs by luciferase reporter gene assay
# [6] = Inhibition of NS5A in HCV genotype 6a infected in human HuH7.5/Con1/SG-Neo(I)-hRluc2aUb cells assessed as inhibition of replicon levels incubated for 72 hrs by luciferase reporter gene assay
IC50 [1] [nM],IC50 [2] [nM],IC50 [3] [nM],IC50 [4] [nM],IC50 [5] [nM],IC50 [6] [nM],SMILES
0.069,0.176,–,–,–,–,COC(=O)N[C@H](C(=O)N1CCC[C@H]1c1ncc(-c2ccc3c(c2)OCC(C)(C)COc2cc(-c4cnc([C@@H]5CCCN5C(=O)[C@@H](NC(=O)OC)C(C)C)[nH]4)ccc2-3)[nH]1)C(C)C
0.08,27,–,–,–,–,COC(=O)N[C@H](C(=O)N1CCC[C@H]1c1ncc(-c2ccc3c(c2)CC2(C3)Cc3ccc(-c4cnc([C@@H]5CCCN5C(=O)[C@@H](NC(=O)OC)C(C)C)[nH]4)cc3C2)[nH]1)C(C)C
0.022,10.6,–,–,–,–,COC(=O)N[C@H](C(=O)N1CCC[C@H]1c1ncc(-c2ccc3c(c2)OCCc2cc(-c4cnc([C@@H]5CCCN5C(=O)[C@@H](NC(=O)OC)C(C)C)[nH]4)sc2-3)[nH]1)C(C)C
0.136,26,–,–,–,–,COC(=O)N[C@H](C(=O)N1CCC[C@H]1c1ncc(-c2ccc(-c3ccc(-c4ccc(-c5cnc([C@@H]6CCCN6C(=O)[C@@H](NC(=O)OC)C(C)C)[nH]5)cc4)cc3)cc2)[nH]1)C(C)C
0.008,1.3,–,–,–,–,COC(=O)N[C@H](C(=O)N1CCC[C@H]1c1nc(Cl)c(-c2ccc3c(c2)OCCc2cc(-c4[nH]c([C@@H]5CCCN5C(=O)[C@@H](NC(=O)OC)C(C)C)nc4Cl)sc2-3)[nH]1)C(C)C
0.288,0.314,–,–,–,–,COC(=O)N[C@H](C(=O)N1CCC[C@H]1c1ncc(-c2ccc3c(c2)OCCCOc2cc(-c4cnc([C@@H]5CCCN5C(=O)[C@@H](NC(=O)OC)C(C)C)[nH]4)ccc2-3)[nH]1)C(C)C
0.019,0.031,–,–,–,–,COC(=O)N[C@H](C(=O)N1CCC[C@H]1c1nc(Cl)c(-c2ccc3c(c2)OCCCOc2cc(-c4[nH]c([C@@H]5CCCN5C(=O)[C@@H](NC(=O)OC)C(C)C)nc4Cl)ccc2-3)[nH]1)C(C)C
0.115,6.8,–,–,–,–,COC(=O)N[C@H](C(=O)N1CCC[C@H]1c1nc(C2CC2)c(-c2ccc3c(c2)OCC(C)(C)COc2cc(-c4[nH]c([C@@H]5CCCN5C(=O)[C@@H](NC(=O)OC)C(C)C)nc4C4CC4)ccc2-3)[nH]1)C(C)C
0.015,0.009,–,–,–,–,COC(=O)N[C@H](C(=O)N1CCC[C@H]1c1ncc(-c2ccc3c(c2)CCc2cc(-c4cnc([C@@H]5CCCN5C(=O)[C@@H](NC(=O)OC)C(C)C)[nH]4)ccc2-3)[nH]1)C(C)C
0.262,4.6,–,–,–,–,COC(=O)N[C@H](C(=O)N1CCC[C@H]1c1ncc(-c2ccc(N3CCN(c4ccc(-c5cnc([C@@H]6CCCN6C(=O)[C@@H](NC(=O)OC)C(C)C)[nH]5)cc4)CC3)cc2)[nH]1)C(C)C
0.004,0.322,–,–,–,–,COC(=O)N[C@H](C(=O)N1CCC[C@H]1c1nc(Cl)c(-c2ccc3c(c2)OCC(C)(C)COc2cc(-c4[nH]c([C@@H]5CCCN5C(=O)[C@@H](NC(=O)OC)C(C)C)nc4Cl)ccc2-3)[nH]1)C(C)C
0.021,0.801,–,–,–,–,COC(=O)N[C@H](C(=O)N1CCC[C@H]1c1ncc(-c2ccc3c(c2)CCCc2cc(-c4cnc([C@@H]5CCCN5C(=O)[C@@H](NC(=O)OC)C(C)C)[nH]4)sc2-3)[nH]1)C(C)C
0.219,80,–,–,–,–,CCc1nc([C@@H]2CCCN2C(=O)[C@@H](NC(=O)OC)C(C)C)[nH]c1-c1ccc2c(c1)OCC(C)(C)COc1cc(-c3[nH]c([C@@H]4CCCN4C(=O)[C@@H](NC(=O)OC)C(C)C)nc3CC)ccc1-2
0.051,0.053,–,–,–,–,COC(=O)N[C@H](C(=O)N1CCC[C@H]1c1ncc(-c2ccc3c(c2)OCCCOc2cc(-c4[nH]c([C@@H]5CCCN5C(=O)[C@@H](NC(=O)OC)C(C)C)nc4Cl)ccc2-3)[nH]1)C(C)C
3.7,4,–,–,–,–,COC(=O)N[C@H](C(=O)N1CCC[C@H]1c1ncc(-c2ccc(N3CC4CC3CN4c3ccc(-c4cnc([C@@H]5CCCN5C(=O)[C@@H](NC(=O)OC)C(C)C)[nH]4)cc3)cc2)[nH]1)C(C)C
0.073,–,–,–,–,–,COC(=O)N[C@H](C(=O)N1CCC[C@H]1c1ncc(-c2ccc3c(ccc4sc(-c5cnc([C@@H]6CCCN6C(=O)[C@@H](NC(=O)OC)C(C)C)[nH]5)nc43)c2)[nH]1)C(C)C
0.312,34,–,–,–,–,COC(=O)N[C@H](C(=O)N1CCC[C@H]1c1ncc(-c2ccc(C34CCC(c5ccc(-c6cnc([C@@H]7CCCN7C(=O)[C@@H](NC(=O)OC)C(C)C)[nH]6)cc5)(CC3)CC4)cc2)[nH]1)C(C)C
0.194,1.3,–,–,–,–,COC(=O)N[C@H](C(=O)N1CCC[C@H]1c1ncc(-c2ccc3c(c2)OCCCCOc2cc(-c4cnc([C@@H]5CCCN5C(=O)[C@@H](NC(=O)OC)C(C)C)[nH]4)ccc2-3)[nH]1)C(C)C
0.02,0.03,0.031,0.075,0.009,0.055,COC(=O)N[C@H](C(=O)N1CCC[C@H]1c1ncc(-c2ccc3c(c2)OCc2cc(-c4cnc([C@@H]5CCCN5C(=O)[C@@H](NC(=O)OC)C(C)C)[nH]4)sc2-3)[nH]1)C(C)C
0.021,0.671,–,–,–,–,COC(=O)N[C@H](C(=O)N1CCC[C@H]1c1ncc(-c2ccc3c(c2)OCC(C)(C)COc2cc(-c4[nH]c([C@@H]5CCCN5C(=O)[C@@H](NC(=O)OC)C(C)C)nc4Cl)ccc2-3)[nH]1)C(C)C
0.023,0.009,–,–,–,–,COC(=O)N[C@H](C(=O)N1CCC[C@H]1c1nc(-c2ccc(-c3ccc(-c4c[nH]c([C@@H]5CCCN5C(=O)[C@@H](NC(=O)OC)C(C)C)n4)cc3)cc2)c[nH]1)C(C)C [BMS-790052]
0.012,0.005,0.027,0.047,0.003,0.028,COC(=O)N[C@H](C(=O)N1CCC[C@H]1c1ncc(-c2ccc3c(ccc4cc(-c5cnc([C@@H]6CCCN6C(=O)[C@@H](NC(=O)OC)C(C)C)[nH]5)sc43)c2)[nH]1)C(C)C
0.013,0.011,–,–,–,–,COC(=O)N[C@H](C(=O)N1CCC[C@H]1c1ncc(-c2ccc3c(ccc4cc(-c5cnc([C@@H]6[C@@H]7CC[C@@H](C7)N6C(=O)[C@@H](NC(=O)OC)C(C)C)[nH]5)sc43)c2)[nH]1)C(C)C
0.135,1.8,–,–,–,–,COC(=O)N[C@H](C(=O)N1CCC[C@H]1c1ncc(-c2ccc3c(c2)OCC2(CC2)COc2cc(-c4cnc([C@@H]5CCCN5C(=O)[C@@H](NC(=O)OC)C(C)C)[nH]4)ccc2-3)[nH]1)C(C)C
0.02,0.052,–,–,–,–,COC(=O)N[C@H](C(=O)N1CCC[C@H]1c1nc(Cl)c(-c2ccc3c(c2)CCCc2cc(-c4[nH]c([C@@H]5CCCN5C(=O)[C@@H](NC(=O)OC)C(C)C)nc4Cl)sc2-3)[nH]1)C(C)C
0.021,0.337,–,–,–,–,COC(=O)N[C@H](C(=O)N1[C@H]2CC[C@H](C2)[C@H]1c1ncc(-c2ccc3c(ccc4cc(-c5cnc([C@@H]6[C@@H]7CC[C@@H](C7)N6C(=O)[C@@H](NC(=O)OC)C(C)C)[nH]5)sc43)c2)[nH]1)C(C)C
0.021,0.021,–,–,–,–,COC(=O)N[C@H](C(=O)N1CCC[C@H]1c1ncc(-c2ccc3c(c2)CCc2cc(-c4cnc([C@@H]5CCCN5C(=O)[C@@H](NC(=O)OC)C(C)C)[nH]4)sc2-3)[nH]1)C(C)C
